This note sets out measurements from article PMC7934941, “Pharmacological chaperone action in humanized mouse models of MC4R-linked obesity” (JCI Insight, 2021).

The target of one experiment is T1, WT-hMC4R (Homo sapiens, UniProt P32245).
T1 construct: expressed in transfected cells
In words: Melanocortin agonist cAMP production, WT receptor. In kind it is cell-based. The conditions noted are these: % of Emax of untreated WT-hMC4R upon 1 μM NDP-α-MSH. On the procedure:
(§1) Data are the means ± SEM of 3 independent experiments.
(§2) Cells were kept on ice for 5 minutes before proceeding to cAMP measurement. […] For all assays, plates were then put at –80°C at least 90 minutes and thawed at RT on Heidolph Titramax 100 shaker at speed 1050 rpm. Cell lysates were then transferred to 384-well plates, lysed, and incubated with cAMP labeled with the dye d2 and anti-cAMP M antibody labeled with Cryptate (cAMP dynamic-2 kit, cisbio) according to the manufacturer’s protocol. Reading of the homogeneous time-resolved fluorescence signal was performed on an Artemis time-resolved fluorescence resonance energy transfer plate reader (Cosmo Bio USA).

The subject of experiment [1] is hMC4R-KI, loxTB MC4R-null and nontransgenic mice. The experiment in a line: Acute icv melanocortin agonist sensitivity, nocturnal food intake. In kind it is in vivo, mouse. To be noted: homozygous loxTB MC4R-null mice. On the procedure: (A–C) Immunohistochemical labeling of MC4R-positive neurons. […] Inset in A: higher power magnification of boxed areas containing GFP immune reactive neurons (brown cytoplasmic reaction product). Arrows in the center and right insets indicate GFP-positive neurons. Scale bars: 100 μm (A), 50 μm (A, inset), […] (B) and 10 μm (C). […] Food intake was measured 4 hours postadministration in dark phase and reported in percentage.
Food consumption was then assessed between ZT10 and ZT15 (3 hours after lights off). Food consumption was then normalized relative to the basal food consumption measured the day before for each mouse (% food intake vs. basal) and is expressed as means ± SEM.
The guide cannulas were secured with screws and cranioplastic cement (Dentsply Canada). To prevent clogging and to reduce the potential for brain infection, sterile obturators (PlasticsOne) were inserted into the guide cannulas. Appropriate cannula placement was functionally verified before experiments using the dipsogenic effects of angiotensin 2 injections (5 ng) as positive control, 5 days after surgery.
The day prior to agonist sensitivity assay, basal food consumption was measured individually between Zeitgeber time 10 (ZT10) (10 hours after lights on) and ZT15 (3 hours after lights off). […] Food consumption was then assessed between ZT10 and ZT15. […]

The next experiment deals with T2, R165W-hMC4R (Homo sapiens, UniProt P32245, R165W).
T2 construct: expressed in transfected cells
The experiment in a line: Melanocortin agonist cAMP production, mutant receptor. In kind it is cell-based. On the procedure: as §1, §2
A general note: Cyclic AMP is a second messenger, typically raised through Gs and lowered through Gi signalling.

For experiment [2], the target named is human melanocortin type 4 receptor (WT) (human) (UniProt P32245). To be noted: scale: pEC50.
Experiment [3] addresses mouse melanocortin type 4 receptor (mouse) (UniProt P56450). To be noted: scale: pEC50.

T1 sequence (P32245 whole entry): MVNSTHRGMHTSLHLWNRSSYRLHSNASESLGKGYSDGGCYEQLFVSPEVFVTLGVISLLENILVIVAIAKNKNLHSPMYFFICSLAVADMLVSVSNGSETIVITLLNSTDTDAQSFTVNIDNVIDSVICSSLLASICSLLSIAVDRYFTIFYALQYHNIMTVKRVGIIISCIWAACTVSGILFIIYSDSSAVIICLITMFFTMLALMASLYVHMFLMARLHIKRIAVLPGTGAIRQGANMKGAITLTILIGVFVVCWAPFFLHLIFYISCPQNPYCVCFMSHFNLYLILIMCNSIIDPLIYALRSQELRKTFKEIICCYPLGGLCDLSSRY
Sequence of human melanocortin type 4 receptor (WT) (human) (P32245 whole entry): as above
Sequence of mouse melanocortin type 4 receptor (mouse) (P56450 whole entry): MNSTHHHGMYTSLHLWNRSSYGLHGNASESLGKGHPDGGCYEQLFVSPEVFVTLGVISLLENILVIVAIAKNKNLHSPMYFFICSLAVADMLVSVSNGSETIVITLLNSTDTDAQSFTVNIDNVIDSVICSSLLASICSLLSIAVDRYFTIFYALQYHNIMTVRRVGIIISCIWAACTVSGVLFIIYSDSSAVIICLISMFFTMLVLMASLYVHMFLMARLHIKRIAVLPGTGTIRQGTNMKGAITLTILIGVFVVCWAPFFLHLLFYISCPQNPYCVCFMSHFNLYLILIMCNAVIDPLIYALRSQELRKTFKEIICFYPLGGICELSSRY
T2 sequence (P32245 whole entry R165W): as the sequence (P32245 whole entry) above, with R165W counted along it

Broadly, the Emax is the size of the effect at its maximum, as opposed to the concentration needed. In the case of `CSCC[C@H](NC(=O)[C@H](CCCNC(=N)N)NC(=O)[C@H](Cc1ccc(O)cc1)NC(=O)[C@@H]1CCCN1C(=O)CNC(=O)[C@H](CCC(=O)O)NC(=O)[C@H](CC(=O)O)NC(=O)[C@H](CCCCN)NC(=O)[C@H](CCCCN)NC(=O)[C@H](CCC(=O)O)NC(=O)[C@H](C)N)C(=O)N[C@@H](CCC(=O)O)C(=O)N[C@@H](Cc1c[nH]cn1)C(=O)N[C@@H](Cc1ccccc1)C(=O)N[C@@H](CCCNC(=N)N)C(=O)N[C@@H](Cc1c[nH]c2ccccc12)C(=O)NCC(=O)N[C@@H](CO)C(=O)N1CCC[C@H]1C(=O)N1CCC[C@H]1C(=O)N[C@@H](CCCCN)C(=O)N[C@@H](CC(=O)O)C(=O)O` [β-MSH], the Emax on WT-hMC4R (WT-hMC4R after 10 μM UM0130866 for 15 hours, washed) stood at 92.7 ± 15.8%; on WT-hMC4R (WT-hMC4R, untreated), 112 ± 2.55%; on R165W-hMC4R it was 115 ± 43.5%. Further, the “food intake response (ZT10-ZT15)” value in experiment [1] is “absence of anorexic response”.
For the compound “α–melanocyte-stimulating hormone (peptide)”, the potency (pEC50) of α-MSH to activate Gs, BRET-based biosensor directly monitoring Gs activation in experiment [2] came out at 7.48; in experiment [3], 8.64.
